{"source": "patent US4705753A", "about": "“Biologically active acrylonitrile-based copolymeric membrane” (priority 1984, dated 1987)", "target": "glucose isomerase (GI) from Streptomyces albus, purified, covalently immobilized on acrylonitrile copolymer membrane (Streptomyces albus G, UniProt P24299)", "sequence (P24299 whole entry)": "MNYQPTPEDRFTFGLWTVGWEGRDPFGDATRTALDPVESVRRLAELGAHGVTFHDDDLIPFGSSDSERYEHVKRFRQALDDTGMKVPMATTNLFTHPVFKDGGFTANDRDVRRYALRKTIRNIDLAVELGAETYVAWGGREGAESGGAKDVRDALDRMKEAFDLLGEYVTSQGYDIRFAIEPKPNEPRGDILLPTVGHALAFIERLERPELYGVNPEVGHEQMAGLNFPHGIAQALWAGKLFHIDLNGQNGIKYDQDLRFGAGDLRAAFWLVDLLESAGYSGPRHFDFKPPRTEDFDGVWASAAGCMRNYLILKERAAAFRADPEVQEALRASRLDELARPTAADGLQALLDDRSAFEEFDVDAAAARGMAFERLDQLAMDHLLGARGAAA", "details": "substrate glucose; membrane-bound GI; 70° C., pH 6.8 maleate buffer, 7 mM MgSO4, 3 mM CoSO4"}
{"compound": "OC[C@H]1OC(O)[C@H](O)[C@@H](O)[C@@H]1O", "note": "(stereo partly shown) [glucose]", "values": [{"measurement": "Vmax for the immobilized GI", "value": "~15", "unit": "µmol/min/mg"}]}
